Earlier results as cited in patent US20250231185A1, “Coronavirus T Cell Epitopes, Megapools and Uses Thereof” (La Jolla Institute for Immunology, priority 2021, published 2025).

System: CD8+ T cells
Conditions: CD8RE megapool peptides (non-spike SARS-CoV-2 antigens); dominant epitope Yes/No; cited from earlier work

Row | Substance | Dominant
1 | 2987 (LLLDDFVEII) [compound 2987] | Yes (more dominant epitopes are defined by being recognized by 3 or more donors/different studies)
2 | 2988 (MLWCKDGHV) [compound 2988] | Yes (more dominant epitopes are defined by being recognized by 3 or more donors/different studies)
3 | 2989 (GVAMPNLYK) [compound 2989] | Yes (more dominant epitopes are defined by being recognized by 3 or more donors/different studies)
4 | 2990 (KMQRMLLEK) [compound 2990] | Yes (more dominant epitopes are defined by being recognized by 3 or more donors/different studies)
5 | 2993 (KTIQPRVEK) [compound 2993] | Yes (more dominant epitopes are defined by being recognized by 3 or more donors/different studies)
6 | 2994 (KLVNKFLAL) [compound 2994] | Yes (more dominant epitopes are defined by being recognized by 3 or more donors/different studies)
7 | 2995 (VTNNTFTLK) [compound 2995] | Yes (more dominant epitopes are defined by being recognized by 3 or more donors/different studies)
8 | 2996 (FGDDTVIEV) [compound 2996] | Yes (more dominant epitopes are defined by being recognized by 3 or more donors/different studies)
9 | 2997 (PTDNYITTY) [compound 2997] | Yes (more dominant epitopes are defined by being recognized by 3 or more donors/different studies)
10 | 2998 (QEILGTVSW) [compound 2998] | Yes (more dominant epitopes are defined by being recognized by 3 or more donors/different studies)
11 | 2999 (TTDPSFLGRY) [compound 2999] | Yes (more dominant epitopes are defined by being recognized by 3 or more donors/different studies)
12 | 3000 (YLATALLTL) [compound 3000] | Yes (more dominant epitopes are defined by being recognized by 3 or more donors/different studies)
13 | 3001 (SAPPAQYEL) [compound 3001] | Yes (more dominant epitopes are defined by being recognized by 3 or more donors/different studies)
14 | 3002 (NYMPYFFTL) [compound 3002] | Yes (more dominant epitopes are defined by being recognized by 3 or more donors/different studies)
15 | 3003 (ASMPTTIAK) [compound 3003] | Yes (more dominant epitopes are defined by being recognized by 3 or more donors/different studies)
16 | 3004 (ILFTRFFYV) [compound 3004] | Yes (more dominant epitopes are defined by being recognized by 3 or more donors/different studies)
17 | 3005 (YIFFASFYY) [compound 3005] | Yes (more dominant epitopes are defined by being recognized by 3 or more donors/different studies)
18 | 3006 (QLMCQPILLL) [compound 3006] | Yes (more dominant epitopes are defined by being recognized by 3 or more donors/different studies)
19 | 3007 (STFNVPMEK) [compound 3007] | Yes (more dominant epitopes are defined by being recognized by 3 or more donors/different studies)
20 | 3008 (FLPRVFSAV) [compound 3008] | Yes (more dominant epitopes are defined by being recognized by 3 or more donors/different studies)
21 | 3009 (FSAVGNICY) [compound 3009] | Yes (more dominant epitopes are defined by being recognized by 3 or more donors/different studies)

Row | Substance | Dominant
22 | 3010 (SLRPDTRYVL) [compound 3010] | Yes (more dominant epitopes are defined by being recognized by 3 or more donors/different studies)
23 | 3011 (FLLNKEMYL) [compound 3011] | Yes (more dominant epitopes are defined by being recognized by 3 or more donors/different studies)
24 | 3012 (TSEDMLNPNY) [compound 3012] | Yes (more dominant epitopes are defined by being recognized by 3 or more donors/different studies)
25 | 3013 (TPKYKFVRI) [compound 3013] | Yes (more dominant epitopes are defined by being recognized by 3 or more donors/different studies)
26 | 3014 (VRIQPGQTF) [compound 3014] | Yes (more dominant epitopes are defined by being recognized by 3 or more donors/different studies)
27 | 3015 (FLNGSCGSV) [compound 3015] | Yes (more dominant epitopes are defined by being recognized by 3 or more donors/different studies)
28 | 3016 (GTDLEGNFY) [compound 3016] | Yes (more dominant epitopes are defined by being recognized by 3 or more donors/different studies)
29 | 3017 (VLAWLYAAV) [compound 3017] | Yes (more dominant epitopes are defined by being recognized by 3 or more donors/different studies)
30 | 3018 (FLNRFTTTL) [compound 3018] | Yes (more dominant epitopes are defined by being recognized by 3 or more donors/different studies)
31 | 3019 (SAFAMMFVK) [compound 3019] | Yes (more dominant epitopes are defined by being recognized by 3 or more donors/different studies)
32 | 3020 (FLLPSLATV) [compound 3020] | Yes (more dominant epitopes are defined by being recognized by 3 or more donors/different studies)
33 | 3021 (MPASWVMRI) [compound 3021] | Yes (more dominant epitopes are defined by being recognized by 3 or more donors/different studies)
34 | 3022 (KLKDCVMYA) [compound 3022] | Yes (more dominant epitopes are defined by being recognized by 3 or more donors/different studies)
35 | 3023 (SMWALIISV) [compound 3023] | Yes (more dominant epitopes are defined by being recognized by 3 or more donors/different studies)
36 | 3025 (SEFSSLPSY) [compound 3025] | Yes (more dominant epitopes are defined by being recognized by 3 or more donors/different studies)
37 | 3026 (NTCDGTTFTY) [compound 3026] | Yes (more dominant epitopes are defined by being recognized by 3 or more donors/different studies)
38 | 3027 (FTYASALWEI) [compound 3027] | Yes (more dominant epitopes are defined by being recognized by 3 or more donors/different studies)
39 | 3030 (ALRANSAVK) [compound 3030] | Yes (more dominant epitopes are defined by being recognized by 3 or more donors/different studies)
40 | 3032 (CTDDNALAYY) [compound 3032] | Yes (more dominant epitopes are defined by being recognized by 3 or more donors/different studies)
41 | 3033 (YTELEPPCRF) [compound 3033] | Yes (more dominant epitopes are defined by being recognized by 3 or more donors/different studies)
42 | 3034 (VTDTPKGPK) [compound 3034] | Yes (more dominant epitopes are defined by being recognized by 3 or more donors/different studies)

Row | Substance | Dominant
43 | 3035 (MDLFMRIFTI) [compound 3035] | Yes (more dominant epitopes are defined by being recognized by 3 or more donors/different studies)
44 | 3036 (FVRATATIPI) [compound 3036] | Yes (more dominant epitopes are defined by being recognized by 3 or more donors/different studies)
45 | 3037 (IPIQASLPF) [compound 3037] | Yes (more dominant epitopes are defined by being recognized by 3 or more donors/different studies)
46 | 3038 (IVGVALLAVF) [compound 3038] | Yes (more dominant epitopes are defined by being recognized by 3 or more donors/different studies)
47 | 3039 (ALSKGVHFV) [compound 3039] | Yes (more dominant epitopes are defined by being recognized by 3 or more donors/different studies)
48 | 3040 (YLYALVYFL) [compound 3040] | Yes (more dominant epitopes are defined by being recognized by 3 or more donors/different studies)
49 | 3041 (VYFLQSINF) [compound 3041] | Yes (more dominant epitopes are defined by being recognized by 3 or more donors/different studies)
50 | 3042 (LLYDANYFL) [compound 3042] | Yes (more dominant epitopes are defined by being recognized by 3 or more donors/different studies)
51 | 3043 (FTSDYYQLY) [compound 3043] | Yes (more dominant epitopes are defined by being recognized by 3 or more donors/different studies)
52 | 3044 (YYQLYSTQL) [compound 3044] | Yes (more dominant epitopes are defined by being recognized by 3 or more donors/different studies)
53 | 3045 (HLVDFQVTI) [compound 3045] | Yes (more dominant epitopes are defined by being recognized by 3 or more donors/different studies)
54 | 3046 (QLRARSVSPK) [compound 3046] | Yes (more dominant epitopes are defined by being recognized by 3 or more donors/different studies)
55 | 3047 (RARSVSPKL) [compound 3047] | Yes (more dominant epitopes are defined by being recognized by 3 or more donors/different studies)
56 | 3048 (KLFIRQEEV) [compound 3048] | Yes (more dominant epitopes are defined by being recognized by 3 or more donors/different studies)
57 | 3049 (VFITLCFTLK) [compound 3049] | Yes (more dominant epitopes are defined by being recognized by 3 or more donors/different studies)
58 | 3050 (IMLIIFWFSL) [compound 3050] | Yes (more dominant epitopes are defined by being recognized by 3 or more donors/different studies)
59 | 3051 (IQYIDIGNY) [compound 3051] | Yes (more dominant epitopes are defined by being recognized by 3 or more donors/different studies)
60 | 3052 (KLGSLVVRC) [compound 3052] | Yes (more dominant epitopes are defined by being recognized by 3 or more donors/different studies)
61 | 3053 (LEYHDVRVVL) [compound 3053] | Yes (more dominant epitopes are defined by being recognized by 3 or more donors/different studies)

Same assay, conditions: HLA-A*01:01 epitopes overlapping TTDPSFLGRY; Saini et al.; cited from earlier work

Row | Substance | dominance as reported
62 | HTTDPSFLGRY [nsp3 818-828] | particularly dominant

Same assay, conditions: Habel et al., 14 peptides screened; HLA-A*02:01; cited from earlier work

Row | Substance | IFN-f response
63 | ORF1ab 3183-3191: SARS-CoV-2 ORF1ab 3183-3191 CD8 epitope among 14 peptides screened in the Habel et al. study (FLLNKEMYL; CD8 epitope peptide; UniProt P0DTD1 3183-3191, looked up, fragment) [reference compound] | less prominently recognized

Same assay, conditions: Rha et al.; 37 of 112 and 2 of 40 patients; cited from earlier work

Row | Substance | responses detected in patients [%]
64 | FIAGLIAIV [SEQ ID NO: 1520] | 5
